Measured values published in US8642801B2 (BHI Limited Partnership, priority 2003, dated 2014).

Assays:
[1] = biological target: T1, Aβ40 and Aβ42 peptides in plasma and brain of TgCRND8 mice (Homo sapiens, UniProt P05067); experiment: Long term treatment in adult transgenic CRND8 mice overexpressing βAPP: Aβ levels in plasma and brain by ELISA; assay type: in vivo, Mouse; conditions: BX subcutaneous, BW and BZ oral, vs vehicle or methylcellulose control
T1 construct: ELISA using Human Aβ40 and Aβ42 Fluorometric ELISA kits from Biosource; from tissue; host or cells: plasma and brain homogenate of TgCRND8 transgenic mice (hAPP transgene)
Text: (§1) Transgenic mice, TgCRND8, as those used in the short term treatment, overexpress a human APP gene with the Swedish and Indiana mutations leading to the production of high levels of the amyloid peptides and to the development of an early-onset, aggressive development of brain amyloidosis. The high levels of Aβ peptides and the relative overabundance of Aβ42 compared to Aβ40 are believed to be associated with the severe and early degenerative pathology observed. The pattern of amyloid deposition, presence of dystrophic neuritis, and cognitive deficit has been well documented in this transgenic mouse line. The levels of Aβ peptides in the brain of these mice increase dramatically as the animals age. While the total amyloid peptide levels increase from ˜1.6×10^5 pg/g of brain to ˜3.8×10^6 between 9 and 17 weeks of age.
(§2) The long-term therapeutic effects of compounds of the present invention on cerebral amyloid deposition and β-amyloid (Aβ) levels in the plasma and in the brains of transgenic mice, TgCRND8, expressing the human amyloid precursor protein (hAPP) was studied. These compounds were administered over an 8 or 16 week period at the end of which the levels of Aβ peptides in the plasma and brain of TgCRND8 animals were determined. The goal of this study was to evaluate the efficacy of the compounds at modulating the progression of the amyloidogenic process in the brain and in the plasma of a transgenic mouse model of Alzheimer's disease (AD)
(§3) The mice used in the study consisted of animals bearing one copy of the hAPP gene (+/−) from the 2nd and 3rd generation progenies (N2 and N3) derived from backcrosses from TgCRND8.FVB(N2)AJ(N3) with B6AF1/J hybrid animals. N1=TgCRND8.FVB(N2)AJ(N3)×B6AF1/J N2=TgCRND8.FVB(N2)AJ(N3).B6AF1/J(N1)×B6AF1/J N3=TgCRND8.FVB(N2)AJ(N3).B6AF1/J(N2)×B6AF1/a
(§4) The following abbreviations are used to designate these animals in the present study: TgCRND8.B6AF1/J(N2); TgCRND8.B6AF1/J(N3). Male and female transgenic mice were given daily subcutaneous (compound BX) or oral (compounds BW and BZ) administrations of the appropriate compounds for 8 or 16 weeks.
(§5) Baseline animals consisted of 9±1 week old naive TgCRND8.B6AF1/J animals from the 2nd and 3rd generations. These mice were used to determine the extent of cerebral amyloid deposits and Aβ levels in the plasma and brain of naive transgenic animals at the initiation of treatment.
(§6) Starting at 9 weeks of age (±1 week) animals received daily administration of their respective treatment for a period of 8 or 16 weeks, at a dose of 30 or 100 mg/kg at 10 ml/kg. The route of administration was subcutaneous for water-soluble compounds (Compound BX) and oral for compounds solubilized in methylcellulose 1% (MC 1%) (Compounds BW and BZ). At the end of the treatment periods, plasma and perfused brains were collected for quantification of Aβ levels.
(§7) Animal health was monitored, samples were collected and Aβ levels were measured as described above in the short term treatment study. Compounds were scored based on their ability to modulate levels of Aβ peptides in the plasma and the cerebral soluble/insoluble levels in the brain. Levels of Aβ observed in the plasma and brain of treated animals were compared to that of vehicle-treated (water) or methylcellulose-treated control groups and ranked according to the strength of the pharmacological effect. Increases in the levels of Aβ peptides are indicated using “+” symbols, while decreases in the levels of Aβ peptides are indicated using “−” symbols. The strongest effects are recorded as “+++” or “−−−” while the weakest are shown as “+” or “−”.
(§8) Specifically, increases in the levels of Aβ (relative to vehicle treated control) of 5 to 14% are scored as “+”; increases of 15 to 29% are scored as “++”; and increases of 30% or higher are scored as “+++”. Decreases in the levels of Aβ of 5 to 14% are scored as “−”; decreases of 15 to 29% are scored as “−−”; and decreases of 30% or more are scored as “−−−”. […]

[2] = system: Aβ40 and Aβ42 peptides in plasma and brain of TgCRND8 mice; experiment: as above; assay type: in vivo, Mouse
Text: as §1, §2, §3, §4, §5, §6, §7, §8

SMILES	Brain Abeta40 insoluble ([1]; 30 mg/kg daily, 8 wks)	Brain Abeta40 soluble ([1]; 30 mg/kg daily, 8 wks)	Brain Abeta42 insoluble ([1]; 30 mg/kg daily, 8 wks)	Brain Abeta42 soluble ([1]; 30 mg/kg daily, 8 wks)	Plasma Abeta40 ([1]; 30 mg/kg daily, 8 wks)	Plasma Abeta42 ([1]; 30 mg/kg daily, 8 wks)	Brain Abeta40 insoluble ([1]; 30 mg/kg daily, 16 wks)	Brain Abeta40 soluble ([1]; 30 mg/kg daily, 16 wks)	Brain Abeta42 insoluble ([1]; 30 mg/kg daily, 16 wks)	Brain Abeta42 soluble ([1]; 30 mg/kg daily, 16 wks)	Plasma Abeta40 ([1]; 30 mg/kg daily, 16 wks)	Plasma Abeta42 ([1]; 30 mg/kg daily, 16 wks)	Brain Abeta40 insoluble ([1]; 100 mg/kg daily, 8 wks)	Brain Abeta40 soluble ([1]; 100 mg/kg daily, 8 wks)	Brain Abeta42 insoluble ([1]; 100 mg/kg daily, 8 wks)	Brain Abeta42 soluble ([1]; 100 mg/kg daily, 8 wks)	Plasma Abeta40 ([1]; 100 mg/kg daily, 8 wks)	Plasma Abeta42 ([1]; 100 mg/kg daily, 8 wks)	Brain Abeta40 insoluble ([1]; 100 mg/kg daily, 16 wks)	Brain Abeta40 soluble ([1]; 100 mg/kg daily, 16 wks)	other results
CC(C)(C)NCCCS(=O)(=O)O [BX, 3-(t-butyl)amino-1-propanesulfonic acid]	−−− (decreases of 30% or more are scored as “−−−”)	−−− (decreases of 30% or more are scored as “−−−”)	−− (decreases of 15 to 29% are scored as “−−”)	−−− (decreases of 30% or more are scored as “−−−”)	+ (increases in the levels of Aβ (relative to vehicle treated control) of 5 to 14% are scored as “+”)	+ (increases in the levels of Aβ (relative to vehicle treated control) of 5 to 14% are scored as “+”)	−−− (decreases of 30% or more are scored as “−−−”)	−− (decreases of 15 to 29% are scored as “−−”)	− (Decreases in the levels of Aβ of 5 to 14% are scored as “−”)	0 (changes of 4% or less in either direction are scored as “0”)	− (Decreases in the levels of Aβ of 5 to 14% are scored as “−”)	− (Decreases in the levels of Aβ of 5 to 14% are scored as “−”)	++ (increases of 15 to 29% are scored as “++”)	+ (increases in the levels of Aβ (relative to vehicle treated control) of 5 to 14% are scored as “+”)	0 (changes of 4% or less in either direction are scored as “0”)	+ (increases in the levels of Aβ (relative to vehicle treated control) of 5 to 14% are scored as “+”)	++ (increases of 15 to 29% are scored as “++”)	+++ (increases of 30% or higher are scored as “+++”)	−−− (decreases of 30% or more are scored as “−−−”)	− (Decreases in the levels of Aβ of 5 to 14% are scored as “−”)	Brain Abeta42 insoluble ([1]; 100 mg/kg daily, 16 wks): −− (decreases of 15 to 29% are scored as “−−”); Brain Abeta42 soluble ([1]; 100 mg/kg daily, 16 wks): 0 (changes of 4% or less in either direction are scored as “0”); Plasma Abeta40 ([1]; 100 mg/kg daily, 16 wks): − (Decreases in the levels of Aβ of 5 to 14% are scored as “−”); Plasma Abeta42 ([1]; 100 mg/kg daily, 16 wks): 0 (changes of 4% or less in either direction are scored as “0”); amount of Aβ in the brain ([2]; at both 8 and 16 weeks): dramatic decrease
O=S(=O)(O)CCCNC1C2CC3CC(C2)CC1C3 (stereo not drawn) [BZ, 3-(2-adamantyl)amino-1-propanesulfonic acid]	−− (decreases of 15 to 29% are scored as “−−”)	0 (changes of 4% or less in either direction are scored as “0”)	−−− (decreases of 30% or more are scored as “−−−”)	0 (changes of 4% or less in either direction are scored as “0”)	0 (changes of 4% or less in either direction are scored as “0”)	0 (changes of 4% or less in either direction are scored as “0”)	+ (increases in the levels of Aβ (relative to vehicle treated control) of 5 to 14% are scored as “+”)	0 (changes of 4% or less in either direction are scored as “0”)	0 (changes of 4% or less in either direction are scored as “0”)	+ (increases in the levels of Aβ (relative to vehicle treated control) of 5 to 14% are scored as “+”)	0 (changes of 4% or less in either direction are scored as “0”)	+ (increases in the levels of Aβ (relative to vehicle treated control) of 5 to 14% are scored as “+”)	0 (changes of 4% or less in either direction are scored as “0”)	++ (increases of 15 to 29% are scored as “++”)	− (Decreases in the levels of Aβ of 5 to 14% are scored as “−”)	0 (changes of 4% or less in either direction are scored as “0”)	++ (increases of 15 to 29% are scored as “++”)	+++ (increases of 30% or higher are scored as “+++”)	0 (changes of 4% or less in either direction are scored as “0”)	−− (decreases of 15 to 29% are scored as “−−”)	Brain Abeta42 insoluble ([1]; 100 mg/kg daily, 16 wks): + (increases in the levels of Aβ (relative to vehicle treated control) of 5 to 14% are scored as “+”); Brain Abeta42 soluble ([1]; 100 mg/kg daily, 16 wks): − (Decreases in the levels of Aβ of 5 to 14% are scored as “−”); Plasma Abeta40 ([1]; 100 mg/kg daily, 16 wks): ++ (increases of 15 to 29% are scored as “++”); Plasma Abeta42 ([1]; 100 mg/kg daily, 16 wks): ++ (increases of 15 to 29% are scored as “++”)
O=S(=O)(O)CCCNC12CC3CC(CC(C3)C1)C2 [BW, 3-(1-adamantyl)amino-1-propanesulfonic acid]	−− (decreases of 15 to 29% are scored as “−−”)	− (Decreases in the levels of Aβ of 5 to 14% are scored as “−”)	0 (changes of 4% or less in either direction are scored as “0”)	−− (decreases of 15 to 29% are scored as “−−”)	−−− (decreases of 30% or more are scored as “−−−”)	−−− (decreases of 30% or more are scored as “−−−”)	++ (increases of 15 to 29% are scored as “++”)	+ (increases in the levels of Aβ (relative to vehicle treated control) of 5 to 14% are scored as “+”)	+ (increases in the levels of Aβ (relative to vehicle treated control) of 5 to 14% are scored as “+”)	− (Decreases in the levels of Aβ of 5 to 14% are scored as “−”)	−− (decreases of 15 to 29% are scored as “−−”)	−− (decreases of 15 to 29% are scored as “−−”)	−−− (decreases of 30% or more are scored as “−−−”)	−− (decreases of 15 to 29% are scored as “−−”)	−−− (decreases of 30% or more are scored as “−−−”)	−− (decreases of 15 to 29% are scored as “−−”)	− (Decreases in the levels of Aβ of 5 to 14% are scored as “−”)	− (Decreases in the levels of Aβ of 5 to 14% are scored as “−”)	+ (increases in the levels of Aβ (relative to vehicle treated control) of 5 to 14% are scored as “+”)	++ (increases of 15 to 29% are scored as “++”)	Brain Abeta42 insoluble ([1]; 100 mg/kg daily, 16 wks): ++ (increases of 15 to 29% are scored as “++”); Brain Abeta42 soluble ([1]; 100 mg/kg daily, 16 wks): + (increases in the levels of Aβ (relative to vehicle treated control) of 5 to 14% are scored as “+”); Plasma Abeta40 ([1]; 100 mg/kg daily, 16 wks): − (Decreases in the levels of Aβ of 5 to 14% are scored as “−”); Plasma Abeta42 ([1]; 100 mg/kg daily, 16 wks): − (Decreases in the levels of Aβ of 5 to 14% are scored as “−”); brain and plasma levels of Aβ ([2]; at 8 weeks): dramatic decrease; plasma levels of Aβ ([2]; at 16 weeks): dramatic decrease
